Measured values from the C3SDB collision cross section collection.
Several values for one entry are separate records, joined by “and”; a condition that tells them apart may be missing. Equal entries are not always repeated.

Columns and labels:
[1] = [M+Na]+; instrument: DT; stepped-field
[2] = instrument: DT, single field, calibrated with Agilent tune mix (Agilent)
[3] = instrument: TW, calibrated with phosphatidylcholines (ESI+) and phosphatidylethanolamines (ESI-)
[4] = instrument: DT, stepped-field
[5] = [M-H]-; instrument: TW; calibrated with phosphatidylcholines (ESI+) and phosphatidylethanolamines (ESI-)

| SMILES | collision cross section (N2) ([3]; [M-H]-) [Å²] | collision cross section (N2) ([4]; [M-H]-) | collision cross section (N2) [5] [Å²] | further results |
| --- | --- | --- | --- | --- |
| CCCCC/C=C\C/C=C\CCCCCCCCCC(=O)O[C@H](COC(=O)CCCCCCCCCCCCCCC)COP(=O)(O)OCCN [PE(36:2)] | 267.4 | 276 Å² and 275.9 Å² |  | collision cross section (N2) [1]: 285.7 Å²; collision cross section (N2) ([2]; [M+H]+): 279.3 Å²; collision cross section (N2) ([2]; [M+Na]+): 284.6 Å²; collision cross section (N2) ([2]; [M-H]-): 268.5 Å²; collision cross section (N2) ([3]; [M+H]+): 275.7 Å²; collision cross section (N2) ([4]; [M+H]+): 293 Å² |
| CCCCC/C=C\C/C=C\CCCCCCCCCC(=O)O[C@H](COC(=O)CCCCCCC/C=C\C/C=C\CCCCC)COP(=O)(O)OCCN [PE(38:4)] | 271.1 | 278.4 Å² and 277.4 Å² |  | collision cross section (N2) [1]: 290 Å²; collision cross section (N2) ([2]; [M+H]+): 282.9 Å²; collision cross section (N2) ([3]; [M+H]+): 280.4 Å² |
| CC/C=C\C/C=C\C/C=C\C/C=C\C/C=C\CCCC(=O)O[C@H](COCCCCCCCCCCCCCCCC)COP(=O)(O)OCCN [PE(o36:5)] |  | 270.4 Å² |  | collision cross section (N2) [1]: 279.2 Å² |
| CCCCCCCCCCCCCCCC(=O)O[C@H](COC(=O)CCCCCCCCCCCC)COP(=O)(O)OC[C@@H](O)CO [PG(29:0)] |  |  | 255.2 |  |
| CCCCCCCCCCCCCCCCCC(=O)OC[C@H](COP(=O)(O)OC[C@@H](O)CO)OC(=O)CCCCCCCCCCC [PG(30:0)] |  | 265.6 Å² | 258.7 |  |
| CCCC/C=C\CCCCCCCC(=O)OC[C@H](COP(=O)(O)OC[C@@H](O)CO)OC(=O)CCCCCCC/C=C\CCCCCC [PG(30:2)] |  |  | 255 |  |
| CCCCCCCCCCCCCCCCCCC(=O)O[C@H](COC(=O)CCCCCCCCCCC)COP(=O)(O)OC[C@@H](O)CO [PG(31:0)] |  |  | 262 |  |
| CCCCC/C=C\C/C=C\CCCCCCCC(=O)O[C@H](COC(=O)CCCCCCCCCCCC)COP(=O)(O)OC[C@@H](O)CO [PG(31:2)] |  |  | 257.9 |  |
| CCCC/C=C\CCCCCCCC(=O)OC[C@H](COP(=O)(O)OC[C@@H](O)CO)OC(=O)CCCCCCC/C=C\CCCCCCCC [PG(32:2)] | 261 |  | 261.4 | collision cross section (N2) ([3]; [M+Na]+): 269.8 Å² |
| CCCCCCCC/C=C\CCCCCCCCCC(=O)O[C@H](COC(=O)CCCCCCCCCCCC)COP(=O)(O)OC[C@@H](O)CO [PG(33:1)] |  | 273.7 Å² | 267 | collision cross section (N2) ([2]; [M-H]-): 266.4 Å² |
| CCCCCCCCCCCCCCCCCCCCC(=O)O[C@H](COC(=O)CCCCCCCCCCCCC)COP(=O)(O)OC[C@@H](O)CO [PG(35:0)] |  |  | 275 |  |
| CCCCC/C=C\CCCCCCCC(=O)O[C@H](CO/C=C\CCCCCCCCCCCCCC)COP(=O)(O)OC[C@@H](O)CO [PG(p31:1)] |  |  | 258.5 |  |
| CCCCCCC/C=C\CCCCCCCC(=O)O[C@H](CO/C=C\CCCCCCCCCCCCCC)COP(=O)(O)OC[C@@H](O)CO [PG(p33:1)] |  |  | 265.1 |  |
| CCCCC/C=C\C/C=C\C/C=C\CCCCC(=O)O[C@H](CO/C=C\CCCCCCCCCCCCCC)COP(=O)(O)OC[C@@H](O)CO [PG(p34:3)] |  |  | 264.8 |  |
| CC/C=C\C/C=C\C/C=C\C/C=C\CCCCC(=O)OC[C@H](COP(=O)(O)O[C@H]1C(O)C(O)C(O)[C@@H](O)C1O)OC(=O)CCCCCCCCCCCCCCCCCCC (some centres not stated) [PI(38:4)] | 292.1 | 303.6 Å² and 300.7 Å² |  | collision cross section (N2) ([2]; [M+H]+): 302.3 Å²; collision cross section (N2) ([2]; [M+NH4]+): 304 Å²; collision cross section (N2) ([2]; [M-H]-): 292.9 Å²; collision cross section (N2) ([3]; [M+Na]+): 297.4 Å² |
| CCCCCCCCCC/C=C\CCCCCCCCCC(=O)O[C@H](COC(=O)CCCCCCCCCCCCC)COP(=O)(O)OC[C@H](N)C(=O)O [PS(36:1)] | 278.8 | 289.4 Å² |  | collision cross section (N2) ([2]; [M+H]+): 286.2 Å²; collision cross section (N2) ([2]; [M+Na]+): 287.5 Å²; collision cross section (N2) ([2]; [M-H]-): 279.1 Å² |
